The values below come from DBAASP.

Holding throughout (assay): ≥ marks a high value that may be exact or a test limit, other limits are often not marked, values filed in µg/mL are converted to µM
For assay [1], the system named is Staphylococcus aureus ATCC 29213.
Assay [2] has as its system Escherichia coli ATCC 25922.
Assay [3] concerns Pseudomonas aeruginosa ATCC 27853.
In a further assay the test system is Staphylococcus aureus.
Another assay relates to Escherichia coli.

Converted amounts (≈) assume the structure as drawn. Where only a bound is given, the exact number is not on record here.

As to `NCC(=O)N[C@@H](CCCN=C(N)N)C(=O)N[C@@H](CCCN=C(N)N)C(=O)N1CCC[C@H]1C(=O)N[C@@H](CCCN=C(N)N)C(=O)N1CCC[C@H]1C(=O)N[C@@H](CCCN=C(N)N)C(=O)N1CCC[C@H]1C(=O)N[C@@H](CCCN=C(N)N)C(=O)N1CCC[C@H]1C(=O)N[C@@H](Cc1c[nH]c2ccccc12)C(=O)N[C@@H](Cc1c[nH]c2ccccc12)C(=O)N[C@@H](Cc1c[nH]c2ccccc12)C(N)=O` [GRRPRPRPRPWWW], the MIC in assay [1] came out at 40 µM (≈ 72.1 µg/mL); in assay [2], 20 µM (≈ 36 µg/mL); in assay [3], 80 µM (≈ 144 µg/mL).
With `CC(C)C[C@H](NC(=O)[C@H](CCCCN)NC(=O)[C@H](CC(C)C)NC(=O)[C@H](CC(C)C)NC(=O)[C@H](CCCCN)NC(=O)[C@H](CCCCN)NC(=O)[C@H](CC(C)C)NC(=O)[C@H](CC(C)C)NC(=O)[C@H](CCCCN)NC(=O)[C@H](C)NC(=O)[C@H](CC(C)C)NC(=O)[C@H](CCCCN)NC(=O)[C@H](CCCCN)NC(=O)[C@@H](N)CC(C)C)C(=O)N[C@@H](C)C(=O)NCC(=O)O` [LKKLAKLLKKLLKLAG], the MIC in assay [1] and in assay [2] was 10 µM (≈ 17.8 µg/mL) each time.
Consider `CSCC[C@H](NC(=O)CNC(=O)[C@H](C)NC(=O)[C@H](CCCCN)NC(=O)[C@H](C)NC(=O)[C@H](Cc1ccccc1)NC(=O)[C@H](CCCCN)NC(=O)[C@H](CCCCN)NC(=O)[C@H](CC(C)C)NC(=O)[C@@H](NC(=O)[C@H](CC(=O)O)NC(=O)[C@H](CC(C)C)NC(=O)[C@H](Cc1ccccc1)NC(=O)[C@H](CC(C)C)NC(=O)CN)[C@@H](C)O)C(=O)N[C@@H](CCC(=O)O)C(=O)N[C@@H](C)C(=O)N[C@H](C(=O)N[C@H](C(=O)N[C@@H](CC(N)=O)C(=O)N1CCC[C@H]1C(=O)N[C@@H](CCCCN)C(=O)O)[C@@H](C)O)C(C)C` [GLFLDTLKKFAKAGMEAVTNPK], for which the MIC against Staphylococcus aureus and against Escherichia coli was 80 µM (≈ 190 µg/mL) in each case.
As for `CC(=O)N[C@@H](CC(C)C)C(=O)N[C@@H](CCCCN)C(=O)N[C@@H](CCCCN)C(=O)N1CCC[C@H]1C(=O)N[C@@H](CC(C)C)C(=O)N[C@@H](CCCCN)C(=O)N[C@@H](CC(C)C)C(=O)NCC(=O)N[C@@H](CCCCN)C(=O)N[C@@H](CCCCN)C(=O)N[C@@H](CC(C)C)C(=O)N[C@@H](CC(C)C)C(=O)N[C@@H](CCCCN)C(=O)N[C@@H](CC(C)C)C(N)=O` [LKKPLKLGKKLLKL], the MIC in assay [1] turned out to be 40 µM (≈ 66.4 µg/mL); in assay [2] it was 7.07 µM (≈ 11.7 µg/mL).
On to `CC(C)C[C@H](NC(=O)[C@H](Cc1ccccc1)NC(=O)[C@H](C)NC(=O)[C@H](Cc1c[nH]c2ccccc12)NC(=O)[C@H](Cc1c[nH]c2ccccc12)NC(=O)[C@H](Cc1c[nH]c2ccccc12)NC(=O)[C@H](C)NC(=O)[C@H](Cc1ccccc1)NC(=O)[C@H](CCCN=C(N)N)NC(=O)[C@H](CCCN=C(N)N)NC(=O)[C@@H](N)C(C)C)C(=O)N[C@@H](CCCN=C(N)N)C(=O)N[C@@H](CCCN=C(N)N)C(N)=O` [VRRFAWWWAFLRR], for which the minimum inhibitory concentration (MIC) worked out at 2.7 µM (≈ 5 µg/mL) against Staphylococcus aureus, 2 µM (≈ 3.7 µg/mL) in assay [2] and 5.4 µM (≈ 9.99 µg/mL) with Escherichia coli.
With `CC(=O)N[C@@H](CCCCN)C(=O)N[C@@H](CC(C)C)C(=O)N[C@@H](CC(C)C)C(=O)N[C@@H](CCCCN)C(=O)N[C@@H](CC(C)C)C(=O)N[C@@H](CC(C)C)C(=O)N[C@@H](CCCCN)C(=O)N[C@@H](CCCCN)C(=O)N[C@@H](CC(C)C)C(=O)N1CCC[C@H]1C(=O)N[C@@H](CCCCN)C(=O)N[C@@H](CC(C)C)C(=O)N[C@@H](CC(C)C)C(=O)N[C@@H](CCCCN)C(N)=O` [KLLKLLKKLPKLLK], the MIC in assay [1] and in assay [2] was 40 µM (≈ 68.7 µg/mL) each time.
In the case of `CC(=O)N[C@@H](CC(C)C)C(=O)N[C@@H](CCCCN)C(=O)N[C@@H](CCCCN)C(=O)N[C@@H](CC(C)C)C(=O)N[C@@H](CC(C)C)C(=O)N[C@@H](CCCCN)C(=O)N[C@@H](CC(C)C)C(=O)N[C@@H](CC(C)C)C(=O)N[C@@H](CCCCN)C(=O)N[C@@H](CCCCN)C(=O)N[C@@H](CC(C)C)C(=O)N[C@@H](CC(C)C)C(=O)N[C@@H](CCCCN)C(=O)N[C@@H](CC(C)C)C(N)=O` [LKKLLKLLKKLLKL], the MIC in assay [1] and in assay [2] was 14.1 µM (≈ 24.5 µg/mL) throughout.
For `CC(C)C[C@H](NC(=O)[C@H](C)NC(=O)[C@H](CCCCN)NC(=O)[C@H](CC(C)C)NC(=O)[C@H](CC(C)C)NC(=O)[C@H](CCCCN)NC(=O)[C@H](CCCCN)NC(=O)[C@@H](N)CC(C)C)C(=O)N[C@@H](CCCCN)C(=O)N[C@@H](CCCCN)C(=O)N[C@@H](CC(C)C)C(=O)N[C@@H](CC(C)C)C(=O)N[C@@H](CCCCN)C(=O)N[C@@H](CC(C)C)C(=O)N[C@@H](C)C(=O)NCC(=O)O` [LKKLLKALKKLLKLAG], the MIC in assay [1] and in assay [2] was 10 µM (≈ 17.8 µg/mL) throughout.
Turning to `CC[C@H](C)[C@H](NC(=O)[C@H](CCCN=C(N)N)NC(=O)[C@H](CCCCN)NC(=O)[C@@H](N)CCC(N)=O)C(=O)N[C@@H](CCCN=C(N)N)C(=O)N[C@H](C(=O)N[C@@H](CCCN=C(N)N)C(=O)N[C@@H](CC(C)C)C(=O)N[C@@H](CO)C(=O)N[C@@H](C)C(=O)O)C(C)C` [QKRIRVRLSA], the MIC in assay [1] was more than 52.2 µM; in assay [2], 26.1 µM (≈ 32 µg/mL); in assay [3] it was 26.1 µM (≈ 32 µg/mL).
Turning to `CC[C@H](C)[C@H](NC(=O)CN)C(=O)NCC(=O)N[C@@H](C)C(=O)N[C@H](C(=O)N[C@@H](CC(C)C)C(=O)N[C@@H](CCCCN)C(=O)N[C@H](C(=O)N[C@@H](CC(C)C)C(=O)N[C@H](C(=O)N[C@H](C(=O)NCC(=O)N[C@@H](CC(C)C)C(=O)N1CCC[C@H]1C(=O)N[C@@H](C)C(=O)N[C@@H](CS)C(=O)N[C@H](C(=O)N[C@@H](CO)C(=O)N[C@@H](Cc1c[nH]c2ccccc12)C(=O)N[C@@H](CS)C(=O)N[C@@H](CCCCN)C(=O)N[C@@H](CCCN=C(N)N)C(=O)N[C@@H](CCCCN)C(=O)N[C@@H](CCCN=C(N)N)C(=O)N[C@@H](CCC(N)=O)C(=O)N[C@@H](CCC(N)=O)C(=O)O)[C@@H](C)CC)[C@@H](C)O)[C@@H](C)O)C(C)C)C(C)C` [GIGAVLKVLTTGLPACISWCKRKRQQ], the figures for the MIC (in assay [1]; in assay [2]; against Escherichia coli) were more than 40 µM, 10 µM (≈ 28.3 µg/mL) and 20 µM (≈ 56.5 µg/mL), respectively.
For `CC(=O)N[C@@H](CCCCN)C(=O)N[C@@H](CC(C)C)C(=O)N1CCC[C@H]1C(=O)N[C@@H](CCCCN)C(=O)N[C@@H](CC(C)C)C(=O)N[C@@H](CC(C)C)C(=O)N[C@@H](CCCCN)C(=O)N[C@@H](CCCCN)C(=O)N[C@@H](CC(C)C)C(=O)N[C@@H](CC(C)C)C(=O)N[C@@H](CCCCN)C(=O)N[C@@H](CC(C)C)C(=O)N[C@@H](CC(C)C)C(=O)N[C@@H](CCCCN)C(N)=O` [KLPKLLKKLLKLLK], the MIC in assay [1] and in assay [2] was 10 µM (≈ 17.2 µg/mL) throughout.
Take `CC(=O)N[C@@H](CCCCN)C(=O)N1CCC[C@H]1C(=O)N[C@@H](CC(C)C)C(=O)N[C@@H](CCCCN)C(=O)N[C@@H](CC(C)C)C(=O)N[C@@H](CC(C)C)C(=O)N[C@@H](CCCCN)C(=O)N[C@@H](CCCCN)C(=O)N[C@@H](CC(C)C)C(=O)N[C@@H](CC(C)C)C(=O)N[C@@H](CCCCN)C(=O)N[C@@H](CC(C)C)C(=O)N[C@@H](CC(C)C)C(=O)N[C@@H](CCCCN)C(N)=O` [KPLKLLKKLLKLLK]: the MIC in assay [1] and in assay [2] was 7.07 µM (≈ 12.1 µg/mL) in each case.
In the case of `CC(C)C[C@H](NC(=O)[C@H](CCCCN)NC(=O)[C@H](CC(C)C)NC(=O)[C@H](CC(C)C)NC(=O)[C@H](CCCCN)NC(=O)[C@H](CCCCN)NC(=O)[C@@H](N)CC(C)C)C(=O)NCC(=O)N[C@@H](CCCCN)C(=O)N[C@@H](CCCCN)C(=O)N[C@@H](CC(C)C)C(=O)N[C@@H](CC(C)C)C(=O)N[C@@H](CCCCN)C(=O)N[C@@H](CC(C)C)C(=O)N[C@@H](C)C(=O)NCC(=O)O` [LKKLLKLGKKLLKLAG], the MIC in assay [1] turned out to be 5 µM (≈ 8.82 µg/mL); in assay [2] it was 2.5 µM (≈ 4.41 µg/mL).
For `CC(C)C[C@H](NC(=O)[C@H](Cc1ccccc1)NC(=O)[C@H](C)NC(=O)[C@H](Cc1c[nH]c2ccccc12)NC(=O)[C@H](Cc1c[nH]c2ccccc12)NC(=O)[C@H](Cc1c[nH]c2ccccc12)NC(=O)[C@@H]1CCCN1C(=O)[C@H](Cc1ccccc1)NC(=O)[C@H](CCCN=C(N)N)NC(=O)[C@H](CCCN=C(N)N)NC(=O)[C@@H](N)C(C)C)C(=O)N[C@@H](CCCN=C(N)N)C(=O)N[C@@H](CCCN=C(N)N)C(N)=O` [VRRFPWWWAFLRR], the values for the MIC (in the assay on Staphylococcus aureus; in assay [2]; in the assay on Escherichia coli) were 2.66 µM (≈ 5 µg/mL), 2.83 µM (≈ 5.3 µg/mL) and 10.7 µM (≈ 20 µg/mL), respectively.
Regarding `CC[C@H](C)[C@H](NC(=O)CN)C(=O)NCC(=O)N[C@@H](CCCCN)C(=O)N[C@@H](Cc1ccccc1)C(=O)N[C@@H](CC(C)C)C(=O)N[C@@H](Cc1cnc[nH]1)C(=O)N[C@@H](CO)C(=O)N[C@@H](C)C(=O)N[C@@H](CCCCN)C(=O)N[C@@H](CCCCN)C(=O)N1CCC[C@H]1C(=O)NCC(=O)N[C@@H](CCCCN)C(=O)N[C@@H](C)C(=O)N[C@@H](Cc1ccccc1)C(=O)N[C@H](C(=O)NCC(=O)N[C@@H](CCC(=O)O)C(=O)N[C@H](C(=O)N[C@@H](CCSC)C(=O)N[C@@H](CC(N)=O)C(=O)N[C@@H](CO)C(N)=O)[C@@H](C)CC)C(C)C` [GIGKFLHSAKKPGKAFVGEIMNS], the MIC came out at 106 µM (≈ 256 µg/mL) in assay [1], 26.5 µM (≈ 64 µg/mL) in assay [2] and 53 µM (≈ 128 µg/mL) in assay [3].
For the compound `CC[C@H](C)[C@H](NC(=O)[C@H](CCCN=C(N)N)NC(=O)[C@H](CCC(N)=O)NC(=O)[C@@H](NC(=O)[C@@H](NC(=O)[C@H](CCCN=C(N)N)NC(=O)[C@H](CCCCN)NC(=O)[C@@H](N)Cc1ccccc1)[C@@H](C)CC)C(C)C)C(=O)N[C@@H](CCCCN)C(=O)N[C@@H](CC(=O)O)C(=O)N[C@@H](CO)C(=O)N[C@@H](CC(C)C)C(=O)N[C@@H](CCCN=C(N)N)C(=O)O` [FKRIVQRIKDSLR], the MIC in assay [1] was more than 40 µM; in assay [2] it was 10 µM (≈ 16.6 µg/mL).

For orientation: MIC means the least concentration at which growth counts as inhibited.
